The results in this text go back to ChEMBL document CHEMBL4765362, “Thirty Years of HDAC Inhibitors: 2020 Insight and Hindsight” (J Med Chem, 2020).

The target of test [1] is T1, Polyamine deacetylase HDAC10 (Homo sapiens, UniProt Q969S8).
T1 sequence (Q969S8 whole entry): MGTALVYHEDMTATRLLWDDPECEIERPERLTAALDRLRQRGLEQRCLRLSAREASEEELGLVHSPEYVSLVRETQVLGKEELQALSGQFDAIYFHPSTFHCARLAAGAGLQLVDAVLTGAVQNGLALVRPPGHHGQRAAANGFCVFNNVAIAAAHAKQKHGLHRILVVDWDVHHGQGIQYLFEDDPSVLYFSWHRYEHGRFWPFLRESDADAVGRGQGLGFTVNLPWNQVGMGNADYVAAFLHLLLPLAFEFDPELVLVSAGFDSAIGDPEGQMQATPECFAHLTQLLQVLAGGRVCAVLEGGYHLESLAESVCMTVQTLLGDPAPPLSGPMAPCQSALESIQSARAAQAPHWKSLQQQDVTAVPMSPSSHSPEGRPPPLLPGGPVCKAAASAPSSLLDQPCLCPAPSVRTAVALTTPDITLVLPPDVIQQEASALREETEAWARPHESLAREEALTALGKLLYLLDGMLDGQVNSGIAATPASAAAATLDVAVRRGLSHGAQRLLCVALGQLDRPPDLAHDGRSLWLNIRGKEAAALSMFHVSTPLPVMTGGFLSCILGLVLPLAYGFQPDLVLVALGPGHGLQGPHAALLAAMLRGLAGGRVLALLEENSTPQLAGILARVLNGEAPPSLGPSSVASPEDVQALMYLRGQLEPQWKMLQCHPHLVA
Kind of test: Inhibition of recombinant human HDAC10 (2 to 631 residues) expressed in baculovirus infected sf9 cells using Fluor-de-lys as substrate preincubated for 15 mins followed by substrate addition and measured after 60 mins by fluorescence method.

In test [2] the target is T2, Histone deacetylase 9 (Homo sapiens, UniProt Q9UKV0). Kind of test: Inhibition of C-terminal His-tagged human HDAC9 (604 to 1066 residues) expressed in baculovirus infected sf9 cells using Boc-L-Lys-MCA as substrate preincubated for 15 mins followed by substrate addition and measured after 60 mins by fluorescence method.
T2 sequence (Q9UKV0 whole entry, the tested form may be a part): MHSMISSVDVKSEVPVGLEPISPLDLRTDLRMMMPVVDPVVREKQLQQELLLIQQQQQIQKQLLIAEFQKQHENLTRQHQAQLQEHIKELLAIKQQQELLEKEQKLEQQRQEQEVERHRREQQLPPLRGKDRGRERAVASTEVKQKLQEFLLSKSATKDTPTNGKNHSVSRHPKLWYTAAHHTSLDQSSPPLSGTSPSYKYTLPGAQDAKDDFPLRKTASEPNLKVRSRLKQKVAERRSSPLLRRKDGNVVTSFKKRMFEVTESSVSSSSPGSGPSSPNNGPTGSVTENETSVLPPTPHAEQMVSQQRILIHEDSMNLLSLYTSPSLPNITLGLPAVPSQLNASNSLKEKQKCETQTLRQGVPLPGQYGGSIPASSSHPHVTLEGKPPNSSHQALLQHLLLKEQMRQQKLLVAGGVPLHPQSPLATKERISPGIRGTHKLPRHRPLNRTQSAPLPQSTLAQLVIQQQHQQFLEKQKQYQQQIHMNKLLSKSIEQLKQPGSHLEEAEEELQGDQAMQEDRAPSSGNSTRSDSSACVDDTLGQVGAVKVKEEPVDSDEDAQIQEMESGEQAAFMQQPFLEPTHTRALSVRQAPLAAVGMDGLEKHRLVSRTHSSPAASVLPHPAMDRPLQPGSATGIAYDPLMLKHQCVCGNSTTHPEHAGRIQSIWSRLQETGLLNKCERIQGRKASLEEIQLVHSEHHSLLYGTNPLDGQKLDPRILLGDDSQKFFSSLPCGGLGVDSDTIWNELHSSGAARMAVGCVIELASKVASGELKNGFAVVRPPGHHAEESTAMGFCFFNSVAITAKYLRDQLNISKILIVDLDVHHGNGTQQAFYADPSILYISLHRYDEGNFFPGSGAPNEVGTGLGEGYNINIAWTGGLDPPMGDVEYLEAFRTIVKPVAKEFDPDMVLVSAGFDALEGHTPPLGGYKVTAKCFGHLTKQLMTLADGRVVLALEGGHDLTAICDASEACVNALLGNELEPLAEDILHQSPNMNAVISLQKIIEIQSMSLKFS
Test [3] addresses T3, Histone deacetylase 4 (Homo sapiens, UniProt P56524). Description: Inhibition of human HDAC4 expressed in baculovirus infected sf9 cells using Boc-L-Lys-MCA as substrate preincubated for 15 mins followed by substrate addition and measured after 60 mins by fluorescence method.
Test [4] deals with T4, Histone deacetylase 5 (Homo sapiens, UniProt Q9UQL6). Kind of test: Inhibition of human HDAC5 using Boc-L-Lys-MCA as substrate preincubated for 15 mins followed by substrate addition and measured after 60 mins by fluorescence method.
T4 sequence (Q9UQL6 whole entry): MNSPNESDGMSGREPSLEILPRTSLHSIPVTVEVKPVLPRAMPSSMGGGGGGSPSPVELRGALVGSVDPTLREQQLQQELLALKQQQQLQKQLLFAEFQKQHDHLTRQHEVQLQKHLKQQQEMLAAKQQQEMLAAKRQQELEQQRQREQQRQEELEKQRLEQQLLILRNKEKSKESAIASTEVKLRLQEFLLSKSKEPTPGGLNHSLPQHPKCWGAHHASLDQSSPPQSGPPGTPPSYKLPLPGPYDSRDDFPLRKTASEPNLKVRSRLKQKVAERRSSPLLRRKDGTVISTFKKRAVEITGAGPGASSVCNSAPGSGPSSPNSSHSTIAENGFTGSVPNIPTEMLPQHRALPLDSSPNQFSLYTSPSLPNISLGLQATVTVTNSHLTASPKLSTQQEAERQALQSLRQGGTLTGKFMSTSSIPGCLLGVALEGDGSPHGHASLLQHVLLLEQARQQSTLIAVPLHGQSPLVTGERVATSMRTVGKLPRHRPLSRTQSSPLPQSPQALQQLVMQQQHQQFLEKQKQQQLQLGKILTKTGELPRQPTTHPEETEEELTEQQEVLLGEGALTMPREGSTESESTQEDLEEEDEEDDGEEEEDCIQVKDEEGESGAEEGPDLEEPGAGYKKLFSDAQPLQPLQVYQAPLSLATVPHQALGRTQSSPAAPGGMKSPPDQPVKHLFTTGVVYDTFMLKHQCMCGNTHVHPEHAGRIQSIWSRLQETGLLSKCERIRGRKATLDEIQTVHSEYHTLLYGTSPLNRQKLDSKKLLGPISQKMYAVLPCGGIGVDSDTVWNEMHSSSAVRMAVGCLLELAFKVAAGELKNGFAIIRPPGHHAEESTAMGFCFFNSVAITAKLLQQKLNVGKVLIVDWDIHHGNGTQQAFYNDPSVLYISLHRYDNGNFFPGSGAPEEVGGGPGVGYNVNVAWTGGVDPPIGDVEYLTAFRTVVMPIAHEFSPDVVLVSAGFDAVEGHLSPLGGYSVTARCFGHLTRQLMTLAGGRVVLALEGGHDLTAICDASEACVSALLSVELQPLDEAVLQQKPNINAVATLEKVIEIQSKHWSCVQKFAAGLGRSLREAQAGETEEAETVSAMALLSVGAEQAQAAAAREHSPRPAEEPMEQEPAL
Test [5] concerns the target T2, Histone deacetylase 9. Description: Inhibition of human HDAC9 expressed in baculovirus infected sf9 cells using (Boc-Lys(trifluoroacetyl)-AMC) as substrate by fluorescence-based assay.
In test [6] the target is T4, Histone deacetylase 5. Description: Inhibition of human HDAC5 expressed in baculovirus infected sf9 cells using (Boc-Lys(trifluoroacetyl)-AMC) as substrate by fluorescence-based assay.
For test [7], the target named is T5, Protein deacetylase HDAC6 (Homo sapiens, UniProt Q9UBN7).
T5 sequence (Q9UBN7 whole entry): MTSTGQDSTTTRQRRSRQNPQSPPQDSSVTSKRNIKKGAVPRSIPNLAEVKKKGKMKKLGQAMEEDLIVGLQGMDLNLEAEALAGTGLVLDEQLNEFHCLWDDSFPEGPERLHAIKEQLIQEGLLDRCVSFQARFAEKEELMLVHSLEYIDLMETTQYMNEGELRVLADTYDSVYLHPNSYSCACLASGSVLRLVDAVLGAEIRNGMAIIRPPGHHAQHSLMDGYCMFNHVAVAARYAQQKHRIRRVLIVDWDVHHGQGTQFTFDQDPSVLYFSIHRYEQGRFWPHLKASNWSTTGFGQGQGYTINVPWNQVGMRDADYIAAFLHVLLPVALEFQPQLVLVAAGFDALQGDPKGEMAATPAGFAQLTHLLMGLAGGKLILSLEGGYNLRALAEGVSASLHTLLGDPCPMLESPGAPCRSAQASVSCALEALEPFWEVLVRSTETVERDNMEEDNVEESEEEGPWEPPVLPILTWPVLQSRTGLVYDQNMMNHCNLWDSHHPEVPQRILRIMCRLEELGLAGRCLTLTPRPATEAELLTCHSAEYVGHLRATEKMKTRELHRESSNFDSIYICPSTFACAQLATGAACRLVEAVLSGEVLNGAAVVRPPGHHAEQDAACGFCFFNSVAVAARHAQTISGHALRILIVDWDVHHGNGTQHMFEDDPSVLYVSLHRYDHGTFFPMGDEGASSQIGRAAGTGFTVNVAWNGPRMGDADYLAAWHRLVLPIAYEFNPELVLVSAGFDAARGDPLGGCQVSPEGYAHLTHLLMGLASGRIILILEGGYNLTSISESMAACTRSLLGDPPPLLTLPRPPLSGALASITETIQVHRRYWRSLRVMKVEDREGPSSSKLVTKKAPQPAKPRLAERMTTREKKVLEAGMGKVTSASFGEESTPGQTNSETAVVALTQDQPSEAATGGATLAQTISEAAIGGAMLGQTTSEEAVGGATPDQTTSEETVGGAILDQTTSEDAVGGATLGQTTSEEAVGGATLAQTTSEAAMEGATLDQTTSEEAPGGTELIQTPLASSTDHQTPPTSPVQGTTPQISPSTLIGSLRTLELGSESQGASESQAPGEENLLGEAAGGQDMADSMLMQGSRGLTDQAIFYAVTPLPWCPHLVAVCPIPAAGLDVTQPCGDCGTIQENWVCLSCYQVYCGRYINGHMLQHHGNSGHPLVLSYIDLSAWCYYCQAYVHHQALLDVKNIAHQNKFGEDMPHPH
Description: Inhibition of human HDAC6 using Boc-Lys(Ac)-AMC as substrate preincubated for 30 mins followed by substrate addition and measured after 60 mins by […].

The target of test [8] is T3, Histone deacetylase 4. Description: Inhibition of human HDAC4 using Boc-Lys(tri-fluoracetyl)-AMC as substrate preincubated for 30 mins followed by substrate addition and measured after 60 mins by […] assay.
Test [9] concerns the target T6, Histone deacetylase 3 (Homo sapiens, UniProt O15379). Description: Inhibition of human HDAC3 using Boc-Lys(Ac)-AMC as substrate preincubated for 30 mins followed by substrate addition and measured after 60 mins by […] assay.
The target in test [10] is T7, Histone deacetylase 1 (Homo sapiens, UniProt Q13547). Kind of test: Inhibition of human HDAC1 using Boc-Lys(Ac)-AMC as substrate preincubated for 30 mins followed by substrate addition and measured after 60 mins by […] assay.
T7 sequence (Q13547 whole entry): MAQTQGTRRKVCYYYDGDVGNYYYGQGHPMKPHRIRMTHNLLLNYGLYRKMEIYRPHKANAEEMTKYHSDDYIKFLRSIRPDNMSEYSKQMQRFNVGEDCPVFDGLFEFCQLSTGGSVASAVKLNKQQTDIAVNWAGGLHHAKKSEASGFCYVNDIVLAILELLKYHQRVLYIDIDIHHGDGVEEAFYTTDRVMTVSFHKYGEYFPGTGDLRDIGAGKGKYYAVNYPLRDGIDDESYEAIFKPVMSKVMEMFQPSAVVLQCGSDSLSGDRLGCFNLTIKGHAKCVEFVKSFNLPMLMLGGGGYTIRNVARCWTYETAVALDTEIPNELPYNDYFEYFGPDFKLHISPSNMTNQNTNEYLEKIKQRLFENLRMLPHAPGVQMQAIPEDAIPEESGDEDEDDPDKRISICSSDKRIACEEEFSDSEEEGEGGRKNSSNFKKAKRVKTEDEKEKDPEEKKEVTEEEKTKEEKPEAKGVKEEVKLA
Test [11] concerns the target T1, Polyamine deacetylase HDAC10. Kind of test: Inhibition of HDAC10 (unknown origin).
In test [12] the target is T3, Histone deacetylase 4. Kind of test: Binding affinity to human full length N-terminal GST-tagged HDAC4 by surface plasmon resonance analysis. In general terms: Surface plasmon resonance follows binding to a sensor surface in real time, without labels.
The next test addresses T8, Histone deacetylase 11 (Homo sapiens, UniProt Q96DB2).
T8 sequence (Q96DB2 whole entry): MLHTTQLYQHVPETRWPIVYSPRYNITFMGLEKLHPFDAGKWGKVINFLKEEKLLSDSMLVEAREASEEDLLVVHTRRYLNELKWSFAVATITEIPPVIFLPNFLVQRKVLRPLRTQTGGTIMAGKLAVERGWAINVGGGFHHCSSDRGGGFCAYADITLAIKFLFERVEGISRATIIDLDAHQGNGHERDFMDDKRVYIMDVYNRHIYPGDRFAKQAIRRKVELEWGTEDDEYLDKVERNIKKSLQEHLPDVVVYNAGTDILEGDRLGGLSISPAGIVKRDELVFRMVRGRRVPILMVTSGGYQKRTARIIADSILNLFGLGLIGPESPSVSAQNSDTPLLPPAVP
Description: Inhibition of human C-terminal Flag-tagged HDAC11 expressed in sf9 cells using Boc-Lys(Ac)-AMC as substrate preincubated for 10 mins followed by substrate addition by fluorometry.

Another test addresses T9, Histone deacetylase 8 (Homo sapiens, UniProt Q9BY41).
T9 sequence (Q9BY41 whole entry): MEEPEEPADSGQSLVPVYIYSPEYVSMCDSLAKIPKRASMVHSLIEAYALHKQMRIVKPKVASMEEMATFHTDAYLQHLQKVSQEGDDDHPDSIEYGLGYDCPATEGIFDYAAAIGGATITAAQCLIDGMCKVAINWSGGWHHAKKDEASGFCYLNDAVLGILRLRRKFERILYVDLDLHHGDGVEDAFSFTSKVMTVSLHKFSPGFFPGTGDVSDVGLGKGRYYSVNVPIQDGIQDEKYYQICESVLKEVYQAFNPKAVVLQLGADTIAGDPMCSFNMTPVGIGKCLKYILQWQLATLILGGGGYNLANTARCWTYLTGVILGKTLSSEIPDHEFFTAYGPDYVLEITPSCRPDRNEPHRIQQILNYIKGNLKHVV
Description: Inhibition of recombinant human C-terminal His-tagged HDAC8 expressed in baculovirus infected sf9 cells using p53 (379 to 382 residues) (Arg-His-Lys(Ac)-Lys(Ac)) by fluorimetric assay.

Test [13] deals with T1, Polyamine deacetylase HDAC10. Description: Inhibition of recombinant human N-terminal FLAG-tagged HDAC10 (2 to 631 residues) expressed in baculovirus infected sf9 cells using p53 (379 to 382 residues) (Arg-His-Lys(Ac)-Lys(Ac)) as substrate by fluorimetric assay.
The nature of test [14]: Inhibition of LSD1-HDAC1-CoREST (unknown origin) using Boc-(Ac)Lys-AMC as substrate incubated for 20 mins by fluorescence-based assay. More on the design: species or system Homo sapiens.
Test [15] addresses T10, Histone deacetylase 2 (Homo sapiens, UniProt Q92769). Description: Inhibition of human HDAC2 expressed in Sf9 cells using Ac-Leu-Gly-Lys(Ac)-AMC as substrate measured every 30 secs for 60 mins by fluorescence-based assay.
In test [16] the target is T7, Histone deacetylase 1. Description: Inhibition of HDAC1 (unknown origin) using Ac-Leu-Gly-Lys(Ac)-AMC as substrate measured every 30 secs for 60 mins by fluorescence-based assay.
Test [17] concerns the target Histone deacetylase 3/Nuclear receptor corepressor 2 (HDAC3/NCoR2) (Homo sapiens, UniProt O15379). Kind of test: Inhibition of human C-terminal His-tagged HDAC3 (1 to 428 residues)/human N-terminal GST-tagged NcoR2 (395 to 489 residues) expressed in sf9 cells using Ac-Leu-Gly-Lys(Ac)-AMC as substrate measured every 30 secs for 60 mins by fluorescence-based assay.
Test [18] concerns the target T10, Histone deacetylase 2. Description: Inhibition of HDAC2 (unknown origin).
Test [19] deals with T7, Histone deacetylase 1. Description: Inhibition of HDAC1 (unknown origin).
Test [20] has as its target T6, Histone deacetylase 3. Kind of test: Inhibition of HDAC3 (unknown origin).

Structures are written as SMILES.

T3 sequence (P56524 whole entry): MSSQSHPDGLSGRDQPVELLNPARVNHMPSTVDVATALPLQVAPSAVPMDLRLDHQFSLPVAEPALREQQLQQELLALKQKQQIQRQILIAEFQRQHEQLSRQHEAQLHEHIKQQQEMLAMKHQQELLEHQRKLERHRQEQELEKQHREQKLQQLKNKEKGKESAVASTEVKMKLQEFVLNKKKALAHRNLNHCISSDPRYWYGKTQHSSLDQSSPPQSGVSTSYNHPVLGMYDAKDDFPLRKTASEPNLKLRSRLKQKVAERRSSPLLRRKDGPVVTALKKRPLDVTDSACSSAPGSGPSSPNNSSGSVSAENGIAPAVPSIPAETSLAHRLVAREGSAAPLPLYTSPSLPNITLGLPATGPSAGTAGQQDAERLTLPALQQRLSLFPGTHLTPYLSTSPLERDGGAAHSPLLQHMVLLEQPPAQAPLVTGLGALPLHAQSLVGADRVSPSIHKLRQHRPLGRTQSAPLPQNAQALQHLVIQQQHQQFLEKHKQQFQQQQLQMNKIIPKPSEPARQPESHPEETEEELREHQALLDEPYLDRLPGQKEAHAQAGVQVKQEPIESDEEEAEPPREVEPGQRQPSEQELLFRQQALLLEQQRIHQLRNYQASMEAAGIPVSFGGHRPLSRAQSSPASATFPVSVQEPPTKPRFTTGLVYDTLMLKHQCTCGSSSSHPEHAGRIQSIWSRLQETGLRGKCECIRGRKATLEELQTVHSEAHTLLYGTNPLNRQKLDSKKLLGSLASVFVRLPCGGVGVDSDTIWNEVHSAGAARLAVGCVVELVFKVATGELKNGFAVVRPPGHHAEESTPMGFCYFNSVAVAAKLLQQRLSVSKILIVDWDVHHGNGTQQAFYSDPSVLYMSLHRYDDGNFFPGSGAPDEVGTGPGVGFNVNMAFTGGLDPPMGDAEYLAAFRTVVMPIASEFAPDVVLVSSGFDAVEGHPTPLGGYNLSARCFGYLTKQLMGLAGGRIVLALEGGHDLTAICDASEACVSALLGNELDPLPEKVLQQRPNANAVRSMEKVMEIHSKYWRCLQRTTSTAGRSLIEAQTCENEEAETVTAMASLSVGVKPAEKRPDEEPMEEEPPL
T6 sequence (O15379 whole entry): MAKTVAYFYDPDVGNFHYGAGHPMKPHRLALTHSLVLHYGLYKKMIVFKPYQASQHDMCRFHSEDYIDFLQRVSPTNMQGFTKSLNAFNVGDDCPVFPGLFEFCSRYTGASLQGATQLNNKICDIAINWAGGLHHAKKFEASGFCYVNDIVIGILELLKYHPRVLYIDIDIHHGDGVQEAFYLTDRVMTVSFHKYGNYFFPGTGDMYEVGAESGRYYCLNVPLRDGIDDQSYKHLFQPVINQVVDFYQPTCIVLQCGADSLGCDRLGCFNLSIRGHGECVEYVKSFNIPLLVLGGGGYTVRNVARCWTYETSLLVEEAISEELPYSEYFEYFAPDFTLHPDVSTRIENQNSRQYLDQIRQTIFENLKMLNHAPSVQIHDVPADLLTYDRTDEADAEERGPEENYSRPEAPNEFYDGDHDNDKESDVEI
T10 sequence (Q92769 whole entry): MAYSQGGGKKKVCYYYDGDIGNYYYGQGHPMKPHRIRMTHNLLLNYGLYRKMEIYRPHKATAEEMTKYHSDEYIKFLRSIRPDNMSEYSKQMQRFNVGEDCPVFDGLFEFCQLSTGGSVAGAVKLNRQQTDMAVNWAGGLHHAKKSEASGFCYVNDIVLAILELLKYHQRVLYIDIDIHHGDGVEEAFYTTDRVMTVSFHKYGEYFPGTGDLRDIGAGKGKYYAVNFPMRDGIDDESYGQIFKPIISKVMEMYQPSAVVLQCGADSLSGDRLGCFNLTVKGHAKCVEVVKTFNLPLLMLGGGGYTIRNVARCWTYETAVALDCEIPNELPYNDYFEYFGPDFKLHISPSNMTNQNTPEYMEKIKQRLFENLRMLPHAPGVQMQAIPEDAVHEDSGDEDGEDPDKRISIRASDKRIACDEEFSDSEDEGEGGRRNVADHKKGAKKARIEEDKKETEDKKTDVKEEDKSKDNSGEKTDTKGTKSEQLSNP

For `CCN(CC)Cc1ccc2cc(COC(=O)Nc3ccc(C(=O)NO)cc3)ccc2c1` [GIVINOSTAT], the IC50 (commonly the concentration needed to halve the response being measured) is 331 nM in [1], 512 nM against Histone deacetylase 9 [2], above 1000 nM on Histone deacetylase 4 [3] and 532 nM at Histone deacetylase 5 [4].

`CN(C)Cc1c(C(=O)NCCOc2ccc(C(=O)NO)cc2)oc2ccccc12` [ABEXINOSTAT]: the IC50 came out at 168 nM on Histone deacetylase 9 [5] and 48 nM against Histone deacetylase 5 [6].

For the compound `N=C1Sc2ccccc2C2=NCCCN12`, the IC50 in test [7] is 7000 nM; against Histone deacetylase 4 [8] it was 9000 nM; against Histone deacetylase 3 [9], above 50000 nM; against Histone deacetylase 1 [10], 4000 nM.

With `Cn1cc(CNCC2CCN(c3ncc(C(=O)NO)cn3)CC2)c2ccccc21` [QUISINOSTAT], the IC50 on Histone deacetylase 9 [5] came out at 32 nM; at Histone deacetylase 5 [6], 4 nM; in [11], 0.5 nM.

Turning to `COc1cccc2c1c(O)c(C(=O)N(C)c1ccc(C(F)(F)F)cc1)c(=O)n2C` [TASQUINIMOD], the Kd (commonly the free concentration of one partner at which half of the binding sites on the other are occupied at equilibrium, for simple one-to-one binding) on Histone deacetylase 4 [12] came to 10 nM. That is a double-digit nanomolar value.

Compound `Nc1ccccc1NC(=O)c1ccc(CNc2nccc(-c3cccnc3)n2)cc1` [MOCETINOSTAT] came in with an IC50 against Histone deacetylase 11 of 600 nM.

`CCCCNNC(=O)c1ccc(Br)cc1`: the IC50 was 2000 nM on Histone deacetylase 8 and 15000 nM in test [13].

Compound `Cc1ncsc1-c1ccc(CNC(=O)[C@@H]2C[C@@H](O)CN2C(=O)[C@@H](NC(=O)CCCCCCCCCCC(=O)Nc2ccc(C(=O)Nc3cc(-c4ccccc4)ccc3N)cc2)C(C)(C)C)cc1` registered an IC50 in test [14] of 17000 nM.

In the case of `C/C=C1\NC(=O)[C@@H](C)NC(=O)[C@@H](C(C)C)NC(=O)C[C@@H](CCC)OC(=O)[C@H](C(C)C)NC1=O`, the Ki – broadly, a measure of affinity in units of concentration, obtained from inhibition or displacement – on Histone deacetylase 2 [15] turned out to be 370 nM; on Histone deacetylase 1 [16] it was 690 nM; in [17], 800 nM.

As for `Cc1cn(C)nc1CN1CCC(c2ccc(C(=O)Nc3ccccc3N)cc2)CC1`, the values for the IC50 on Histone deacetylase 2 [18], at Histone deacetylase 1 [19] and on Histone deacetylase 3 [20] were 600 nM, 100 nM and 600 nM, respectively.
